Entries after “also recorded” stand apart in the source; their conditions may differ.
Experiments:
[1] = target: T1, human-derived PPARγ ligand-binding domain (Homo sapiens, UniProt P37231); assay: PPARγ activation test (GAL4 chimera / luciferase reporter in CV-1 cells); format: cell-based; details: for PPARγ ligand activity, ratio (%) of the activity of each synthesized product to the activity of the control substance (DMSO): control = 100
T1 construct: expressed in transfected cells; host or cells: CV-1 cells (African green monkey kidney-derived)
T1 sequence (P37231 238-503 limits assumed): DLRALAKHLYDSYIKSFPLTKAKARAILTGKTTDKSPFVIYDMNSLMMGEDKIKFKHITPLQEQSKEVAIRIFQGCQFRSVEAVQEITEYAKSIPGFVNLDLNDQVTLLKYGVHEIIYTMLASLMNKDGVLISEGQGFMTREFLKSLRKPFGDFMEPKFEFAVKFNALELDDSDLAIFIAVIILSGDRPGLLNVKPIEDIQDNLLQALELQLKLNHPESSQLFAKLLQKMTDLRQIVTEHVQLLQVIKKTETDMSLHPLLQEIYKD
Procedure: A measurement method for the PPAR activation test in Examples below were conducted as described below.
(1) PPARγ Activation Test
A plasmid pM-PPARγ for the expression of a chimeric protein composed of a human-derived PPARγ ligand-binding domain and a DNA-binding domain of a yeast-derived GAL4 transcription factor, and a plasmid p4×UASg-tk-luc containing a Cypridina-derived luciferase structural gene linked downstream of a GAL4 responsive sequence designed such that its expression was controlled by this chimeric protein, were prepared. Also, a Renilla-derived luciferase expression plasmid pRL-CMV having a viral expression promoter for constitutive intracellular expression was prepared as a plasmid for the correction of transfection efficiency. On the other hand, DMEM containing 10% FBS was used as a medium for CV-1 cells (African green monkey kidney-derived). The CV-1 cells were seeded at 4.5×10^5 cells over a 100-mm Petri dish and cultured in an incubator at 37° C. in a 5% CO2 environment.
(1-2) Transformation of CV-1 Cell
The CV-1 cells thus cultured for 24 hours were cotransfected with 2.0 μg of pM-PPARγ, 4.0 μg of p4×UASg-tk-luc, and 0.04 μg of pRL-CMV to transform the CV-1 cells. The transformation was carried out by the liposome method using LipofectAMINE(R) Reagent (a product of Invitrogen Corp.). After the transformation operation, the cells were cultured at 37° C. for 3.5 hours in a 5% CO2 environment.
(1-3) Addition of Test Sample
The CV-1 cells thus incubated were recovered by trypsin treatment, and […] thereof was inoculated at a concentration of 1×10^5 cells/mL to a 96-well plate. Each test sample was diluted with DMEM containing 4% FBS to adjust its concentration to twice the final concentration, and […] thereof was added to the 96-well plate mentioned above. DMSO was used as a control substance. After the addition of the test sample or the control substance (DMSO), the mixture was incubated at 37° C. for 24 hours in a 5% CO2 environment.
(1-4) Measurement of Luciferase Activity
The luciferase activity was measured using Dual-Luciferase(R) Reporter Assay System (a product of Promega K.K.). The culture solution was removed from the 96-well plate. The cells were washed with PBS(−), and moisture was removed therefrom using a paper towel. To the cells, […] of a cell lysis solution (Passive Lysis Buffer) was added, and the 96-well plate was shaken for 15 minutes. The cell extract was transferred at […] to a 96-well luminoplate. A luminescent substrate solution was added thereto at […]. The luminescence intensity based on the luciferase was measured for a measurement time set to 10 seconds using a luminometer (Micro Lumat Plus, a product of Berthold Japan Co., Ltd.).
The PPARγ-activating effect of the test sample was evaluated on the basis of a ratio (%) relative to controls. In order to correct transfection efficiency, the measured Cypridina luciferase activity value (A) was divided by the measured Renilla luciferase activity value (B) to determine a value (A/B). The average A/B value of the control group was calculated and defined as 100. The A/B value of the test sample was calculated, and the ratio (%) of this value to the average value of the controls was used as the ability of the test sample to activate PPARγ.
Their PPARγ ligand activity was measured in the same way as in Example 7 except that the incubation time after the test sample addition was set to 48 hours. The values shown in the table below and the ordinate of the drawing depict the ratio (%) of the activity of each synthesized product to the activity of the control substance (DMSO). In Table 1 and FIG. 13, these various butenolide compounds used as test samples were each indicated by the functional group of R^2 in the formula (1).

[2] = tested on: UCP-1 gene; assay: Measurement of UCP-1 gene expression level in mesenchymal cell line 10T1/2; format: cell-based; details: 10T1/2 cells; 100 μg/mL; 24 hours; FIG. 11
Description: Mitochondrial uncoupling proteins (or uncoupling proteins: UCPs) have the function of uncoupling oxidative phosphorylation reaction in the mitochondrial inner membrane to consume the energy as heat. Among them, UCP-1 is specifically expressed in brown fat cells that produce heat by burning fat. In recent years, particular synthetic PPARγ agonists have been reported to convert white fat cells working to store fat to brown fat cells working to burn fat (H. Ohno et al, Cell metabolism, 2012, Vol. 15, pp. 395-404).
The test was conducted as follows: a mesenchymal cell line 10T1/2 was inoculated at 1×10^4 cells/mL to a 12-well plate. The cells were cultured until confluent. Then, the fraction of peak 5 (5H4PB) was added thereto such that its final concentration was 100 μg/mL. DMSO was used as a control substance. Twenty-four hours after the sample addition, mRNA was recovered from the cells, and the mRNA level was determined. The mRNA quantification was carried out using LightCycler(R) (Roche Applied Science). The ordinate of the drawing depicts the ratio of the UCP-1 expression level for the fraction of peak 5 to the UCP-1 expression level for the control substance (DMSO). […] The increased expression level of UCP-1 indicates enhanced heat production from lipids.

[3] = tested on: liver (hepatocytes) of C57BL/6J mice fed with a high-fat diet; assay: Influence of administration on liver tissue (histopathological examination); format: in vivo, mouse; details: 12 weeks, high-fat diet
Description: In Example 13, the liver was collected during the collection of fat tissues from each individual and histopathologically examined. The findings from the histopathological examination were as described below.
For the individuals of the normal group, the deposition of fat droplets was not observed in the hepatocytes, whereas only the very mild infiltration of inflammatory cells was observed.

[4] = test sample concentration 0.032 μg/mL, incubation 48 hours
[5] = test sample concentration 0.08 μg/mL, incubation 48 hours
[6] = test sample concentration 0.16 μg/mL, incubation 48 hours
[7] = test sample concentration 0.4 μg/mL, incubation 48 hours
[8] = test sample concentration 0.8 μg/mL, incubation 48 hours, * = twice or more vs control, p<0.05
[9] = test sample concentration 2 μg/mL, incubation 48 hours, * = twice or more vs control, p<0.05
[10] = test sample concentration 4 μg/mL, incubation 48 hours, * = twice or more vs control, p<0.05

Row | PPARγ ligand activity, ratio (%) of the activity of each synthesized product to the activity of the control substance (DMSO) [1, 4] [%] | PPARγ ligand activity, ratio (%) of the activity of each synthesized product to the activity of the control substance (DMSO) [1, 5] [%] | PPARγ ligand activity, ratio (%) of the activity of each synthesized product to the activity of the control substance (DMSO) [1, 6] [%] | PPARγ ligand activity, ratio (%) of the activity of each synthesized product to the activity of the control substance (DMSO) [1, 7] [%] | PPARγ ligand activity, ratio (%) of the activity of each synthesized product to the activity of the control substance (DMSO) [1, 8] | PPARγ ligand activity, ratio (%) of the activity of each synthesized product to the activity of the control substance (DMSO) [1, 9] | PPARγ ligand activity, ratio (%) of the activity of each synthesized product to the activity of the control substance (DMSO) [1, 10] | PPARγ ligand activity, ratio (%) of the activity of each synthesized product to the activity of the control substance (DMSO) ([1]; test sample concentration 10 μg/mL, incubation 48 hours, * = twice or more vs control, p<0.05) | PPARγ ligand activity, ratio (%) of the activity of each synthesized product to the activity of the control substance (DMSO) ([1]; test sample concentration 20 μg/mL, incubation 48 hours, * = twice or more vs control, p<0.05) | deposition of fat droplets in the hepatocytes ([3]; 0.037 μg/kg/day) | deposition of fat droplets in the hepatocytes ([3]; 10 mg/kg/day) | swelling of hepatocytes ([3]; 10 mg/kg/day) | Compound | PPARγ ligand activity of butenolide compounds (in words) ([1]; Example 8, incubation 48 hours, Table 1 and FIG. 13, listed as 5-hydroxy-4-(4-methylphenyl)butenolide) | expression level of UCP-1 (mRNA) relative to control substance (DMSO) [2] | PPARγ ligand activity of the fraction of peak 5 ([1]; 50 μg/mL and 100 μg/mL, FIG. 9) | PPARγ ligand activity of peak fractions ([1]; final concentration 100 μg/mL, FIG. 7)
1 |  |  |  |  |  |  |  |  |  |  |  |  | O=C1C=C(c2ccccc2)C(O)O1 (single isomer, unassigned) [5H4PB, 5-hydroxy-4-phenylbutenolide] |  | effect of elevating the expression level of UCP-1 | elevate in a concentration-dependent manner | distinct PPARγ ligand activity
2 | 120 | 220 | 110 | 130 | 170% | 310* % | 360* % |  |  |  |  |  | O=C1C=C(Cc2ccccc2)C(O)O1 (stereo not drawn) [Benzyl, 5-hydroxy-4-benzylbutenolide] |  |  |  | 
3 | 130 | 110 | 120 | 130 | 140% | 130% | 240* % | 340* % | 520* % |  |  |  | Cc1ccc(CC2=CC(=O)OC2O)cc1 (stereo not drawn) [Methylbenzyl, 5-hydroxy-4-(4-methylbenzyl)butenolide] |  |  |  | 
4 |  |  |  |  |  |  |  |  |  | very mild to mild depositions | moderate deposition | mildly swollen | CN(CCOc1ccc(CC2SC(=O)NC2=O)cc1)c1ccccn1 (stereo not drawn) [rosiglitazone, reference compound] |  |  |  | 

Row | Compound | PPARγ ligand activity, ratio (%) of the activity of each synthesized product to the activity of the control substance (DMSO) [1, 4] [%] | PPARγ ligand activity, ratio (%) of the activity of each synthesized product to the activity of the control substance (DMSO) [1, 5] [%] | PPARγ ligand activity, ratio (%) of the activity of each synthesized product to the activity of the control substance (DMSO) [1, 6] [%] | PPARγ ligand activity, ratio (%) of the activity of each synthesized product to the activity of the control substance (DMSO) [1, 7] [%] | PPARγ ligand activity, ratio (%) of the activity of each synthesized product to the activity of the control substance (DMSO) [1, 8] | PPARγ ligand activity, ratio (%) of the activity of each synthesized product to the activity of the control substance (DMSO) [1, 9] | PPARγ ligand activity, ratio (%) of the activity of each synthesized product to the activity of the control substance (DMSO) [1, 10] | PPARγ ligand activity, ratio (%) of the activity of each synthesized product to the activity of the control substance (DMSO) ([1]; test sample concentration 10 μg/mL, incubation 48 hours, * = twice or more vs control, p<0.05) | PPARγ ligand activity, ratio (%) of the activity of each synthesized product to the activity of the control substance (DMSO) ([1]; test sample concentration 20 μg/mL, incubation 48 hours, * = twice or more vs control, p<0.05) | deposition of fat droplets in the hepatocytes ([3]; 0.037 μg/kg/day) | deposition of fat droplets in the hepatocytes ([3]; 10 mg/kg/day) | swelling of hepatocytes ([3]; 10 mg/kg/day) | PPARγ ligand activity of butenolide compounds (in words) ([1]; Example 8, incubation 48 hours, Table 1 and FIG. 13, listed as 5-hydroxy-4-(4-methylphenyl)butenolide) | expression level of UCP-1 (mRNA) relative to control substance (DMSO) [2] | PPARγ ligand activity of the fraction of peak 5 ([1]; 50 μg/mL and 100 μg/mL, FIG. 9) | PPARγ ligand activity of peak fractions ([1]; final concentration 100 μg/mL, FIG. 7)
5 | Cc1ccc(C2=CC(=O)OC2O)cc1 (stereo not drawn) | 170 | 110 | 120 | 180 | 260* % | 560* % | 710* % |  |  |  |  |  | high activity in a low concentration range; also recorded: highest activity |  |  | 

From patent US9943501B2 (KOJUN JAPAN CO., LTD., priority 2014, dated 2018)
